Laboratory results from ChEMBL document CHEMBL1201861, “Genomics of Drug Sensitity in Cancer screening data, Wellcome Trust Sanger Institute”.

How the values were obtained:
Assay in all cases: cells
Mo = format: functional, cell-based, Homo sapiens; conditions: Homo sapiens, Mo
Description: SANGER: Inhibition of human Mo-T cell growth in a cell viability assay.

GOTO = format: functional, cell-based, Homo sapiens; conditions: Homo sapiens, GOTO;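 also: growth inhibition of GOTO cells, read out by a cell viability assay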
Description: SANGER: Inhibition of human GOTO cell growth in a cell viability assay.

K562 = format: functional, cell-based, Homo sapiens; conditions: Homo sapiens, K562
Description: SANGER: Inhibition of human K-562 cell growth in a cell viability assay.

KU812 cell line = format: functional, cell-based, Homo sapiens; conditions: Homo sapiens, KU812;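 also: growth inhibition of KU812 cells, read out with a cell viability assay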
Description: SANGER: Inhibition of human KU812 cell growth in a cell viability assay.

OCUB-M = format: functional, cell-based, Homo sapiens; conditions: Homo sapiens, OCUB-M;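 also: growth inhibition of the cancer cell line, read out through a cell viability assay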
Description: SANGER: Inhibition of human OCUB-M cell growth in a cell viability assay.

8-MG-BA = format: functional, cell-based, Homo sapiens; conditions: Homo sapiens, 8-MG-BA;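 also: growth inhibition of 8-MG-BA cells, read out with a cell viability assay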
Description: SANGER: Inhibition of human 8-MG-BA cell growth in a cell viability assay.

LS-513 = format: functional, cell-based, Homo sapiens; conditions: Homo sapiens, LS-513
Description: SANGER: Inhibition of human LS-513 cell growth in a cell viability assay.

L-428 = format: functional, cell-based, Homo sapiens; conditions: Homo sapiens, L-428
Description: SANGER: Inhibition of human L-428 cell growth in a cell viability assay.

Calu-6 = format: functional, cell-based, Homo sapiens; conditions: Homo sapiens, Calu-6;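 also: growth of human Calu-6 cells, read out by a cell viability assay, IC50 marking inhibition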
Description: SANGER: Inhibition of human Calu-6 cell growth in a cell viability assay.

ES7 = format: functional, cell-based, Homo sapiens; conditions: Homo sapiens, ES7;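 also: growth inhibition of cultured human ES7 cells, read out as cell viability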
Description: SANGER: Inhibition of human ES7 cell growth in a cell viability assay.

A253 cell line = format: functional, cell-based, Homo sapiens; conditions: Homo sapiens, A253;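 also: growth inhibition of A253 cells, read out with a cell viability assay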
Description: SANGER: Inhibition of human A253 cell growth in a cell viability assay.

HCE-4 = format: functional, cell-based, Homo sapiens; conditions: Homo sapiens, HCE-4;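 also: cell viability assay measuring inhibition of growth in the human HCE-4 cell line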
Description: SANGER: Inhibition of human HCE-4 cell growth in a cell viability assay.

SF-539 = format: functional, cell-based, Homo sapiens; conditions: Homo sapiens, SF-539;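 also: Read-out is a cell viability assay, with IC50 reflecting inhibition of cell growth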
Description: SANGER: Inhibition of human SF539 cell growth in a cell viability assay.

NCI-H720 = format: functional, cell-based, Homo sapiens; conditions: Homo sapiens, NCI-H720;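 also: growth inhibition of human NCI-H720 cells determined by a cell viability assay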
Description: SANGER: Inhibition of human NCI-H720 cell growth in a cell viability assay.

EM-2 = format: functional, cell-based, Homo sapiens; conditions: Homo sapiens, EM-2;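 also: growth inhibition of EM-2 cells, read out with a cell viability assay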
Description: SANGER: Inhibition of human EM-2 cell growth in a cell viability assay.

MZ7-mel = format: functional, cell-based, Homo sapiens; conditions: Homo sapiens, MZ7-mel;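 also: growth inhibition of human MZ7-mel cells, measured by a cell viability assay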
Description: SANGER: Inhibition of human MZ7-mel cell growth in a cell viability assay.

ML-2 = format: functional, cell-based, Homo sapiens; conditions: Homo sapiens, ML-2;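 also: growth inhibition of ML-2 cells, measured with a cell viability readout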
Description: SANGER: Inhibition of human ML-2 cell growth in a cell viability assay.

NB69 = format: functional, cell-based, Homo sapiens; conditions: Homo sapiens, NB69;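 also: growth inhibition of NB69 cells, determined by a cell viability assay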
Description: SANGER: Inhibition of human NB69 cell growth in a cell viability assay.

NTERA-2-cl-D1 = format: functional, cell-based, Homo sapiens; conditions: Homo sapiens, NTERA-2-cl-D1;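 also: inhibition of cell growth, measured with a cell viability assay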
Description: SANGER: Inhibition of human NTERA-S-cl-D1 cell growth in a cell viability assay.

NCI-H1304 = format: functional, cell-based, Homo sapiens; conditions: Homo sapiens, NCI-H1304;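 also: growth inhibition of the cancer cell line, measured in a cell viability assay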
Description: SANGER: Inhibition of human NCI-H1304 cell growth in a cell viability assay.

CAS-1 = format: functional, cell-based, Homo sapiens; conditions: Homo sapiens, CAS-1;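 also: growth inhibition of CAS-1 cells, measured with a cell viability assay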
Description: SANGER: Inhibition of human CAS-1 cell growth in a cell viability assay.

BB49-HNC = format: functional, cell-based, Homo sapiens; conditions: Homo sapiens, BB49-HNC;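 also: cell viability assay read-out, reported as inhibition of BB49-HNC cell growth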
Description: SANGER: Inhibition of human BB49-HNC cell growth in a cell viability assay.

MV4-11 = format: functional, cell-based, Homo sapiens, MV-4-11; conditions: Homo sapiens, MV4-11;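 also: cell viability readout measuring growth inhibition of human MV-4-11 cells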
Description: SANGER: Inhibition of human MV-4-11 cell growth in a cell viability assay.

NCI-H1838 = format: functional, cell-based, Homo sapiens; conditions: Homo sapiens, NCI-H1838;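 also: growth inhibition of NCI-H1838 cells, determined with a cell viability readout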
Description: SANGER: Inhibition of human NCI-H1838 cell growth in a cell viability assay.

HDLM-2 = format: functional, cell-based, Homo sapiens; conditions: Homo sapiens, HDLM-2;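 also: cell viability assay measuring suppression of HDLM-2 proliferation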
Description: SANGER: Inhibition of human HDLM-2 cell growth in a cell viability assay.

MPP-89 = format: functional, cell-based, Homo sapiens; conditions: Homo sapiens, MPP-89;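 also: growth inhibition of human MPP-89 cells, read out with a cell viability assay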
Description: SANGER: Inhibition of human MPP-89 cell growth in a cell viability assay.

P30-OHK = format: functional, cell-based, Homo sapiens; conditions: Homo sapiens, P30-OHK;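 also: growth inhibition of the P30-OHK cell line, read out with a cell viability assay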
Description: SANGER: Inhibition of human P30-OHK cell growth in a cell viability assay.

MZ2-MEL = format: functional, cell-based, Homo sapiens; conditions: Homo sapiens, MZ2-MEL;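 also: growth inhibition of MZ2-MEL cells read out with a cell viability assay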
Description: SANGER: Inhibition of human MZ2-MEL cell growth in a cell viability assay.

IST-SL1 = format: functional, cell-based, Homo sapiens; conditions: Homo sapiens, IST-SL1;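 also: growth inhibition of human IST-SL1 cells, read out with a cell viability assay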
Description: SANGER: Inhibition of human IST-SL1 cell growth in a cell viability assay.

MFH-ino = format: functional, cell-based, Homo sapiens; conditions: Homo sapiens, MFH-ino;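 also: growth inhibition of human MFH-ino cells, read out by a cell viability assay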
Description: SANGER: Inhibition of human MFH-ino cell growth in a cell viability assay.

LAN-6 = format: functional, cell-based, Homo sapiens; conditions: Homo sapiens, LAN-6;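 also: growth inhibition of LAN-6 cells, determined with a cell viability assay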
Description: SANGER: Inhibition of human LAN-6 cell growth in a cell viability assay.

A3-KAW = format: functional, cell-based, Homo sapiens; conditions: Homo sapiens, A3-KAW;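 also: growth inhibition of human A3-KAW cells, read out with a cell viability assay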
Description: SANGER: Inhibition of human A3-KAW cell growth in a cell viability assay.

DB = format: functional, cell-based, Homo sapiens; conditions: Homo sapiens, DB
Description: SANGER: Inhibition of human DB cell growth in a cell viability assay.

LB2241-RCC = format: functional, cell-based, Homo sapiens; conditions: Homo sapiens, LB2241-RCC;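 also: cell viability assay measuring how strongly the cultured human renal carcinoma line is prevented from growing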
Description: SANGER: Inhibition of human LB2241-RCC cell growth in a cell viability assay.

KS-1 = format: functional, cell-based, Homo sapiens; conditions: Homo sapiens, KS-1;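 also: growth inhibition of KS-1 cells, read out with a cell viability assay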
Description: SANGER: Inhibition of human KS-1 cell growth in a cell viability assay.

697 = format: functional, cell-based, Homo sapiens; conditions: Homo sapiens
Description: SANGER: Inhibition of human 697 cell growth in a cell viability assay.

NCI-H2126 = format: functional, cell-based, Homo sapiens; conditions: Homo sapiens, NCI-H2126;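 also: growth inhibition of the cancer cell line, determined with a cell viability readout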
Description: SANGER: Inhibition of human NCI-H2126 cell growth in a cell viability assay.

HCC 2998 = format: functional, cell-based, Homo sapiens; conditions: Homo sapiens, HCC 2998;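 also: growth inhibition of human HCC2998 cells, measured with a cell viability read-out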
Description: SANGER: Inhibition of human HCC2998 cell growth in a cell viability assay.

NOS-1 = format: functional, cell-based, Homo sapiens; conditions: Homo sapiens, NOS-1;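 also: growth inhibition of the human NOS-1 cell line, read out with a cell viability assay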
Description: SANGER: Inhibition of human NOS-1 cell growth in a cell viability assay.

SW872 = format: functional, cell-based, Homo sapiens; conditions: Homo sapiens, SW872;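 also: growth inhibition of SW872 cells, read out by a viability assay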
Description: SANGER: Inhibition of human SW872 cell growth in a cell viability assay.

CGTH-W-1 = format: functional, cell-based, Homo sapiens; conditions: Homo sapiens, CGTH-W-1;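 also: growth inhibition of human CGTH-W-1 cells measured by cell viability assay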
Description: SANGER: Inhibition of human CGTH-W-1 cell growth in a cell viability assay.

NB17 = format: functional, cell-based, Homo sapiens; conditions: Homo sapiens, NB17;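 also: growth inhibition of NB17 cells, read out with a cell viability assay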
Description: SANGER: Inhibition of human NB17 cell growth in a cell viability assay.

NCI-H1395 = format: functional, cell-based, Homo sapiens; conditions: Homo sapiens, NCI-H1395;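 also: cell viability assay read-out quantifying reduced proliferation of human NCI-H1395 cells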
Description: SANGER: Inhibition of human NCI-H1395 cell growth in a cell viability assay.

KP-N-YS = format: functional, cell-based, Homo sapiens; conditions: Homo sapiens, KP-N-YS;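 also: cell viability assay measuring inhibition of cell line growth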
Description: SANGER: Inhibition of human KP-N-YS cell growth in a cell viability assay.

SNU1 = format: functional, cell-based, Homo sapiens; conditions: Homo sapiens, SNU1;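 also: growth inhibition of human NCI-SNU-1 cells, measured with a cell viability assay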
Description: SANGER: Inhibition of human NCI-SNU-1 cell growth in a cell viability assay.

SF-126 = format: functional, cell-based, Homo sapiens; conditions: Homo sapiens, SF-126;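 also: growth inhibition of human SF126 cells, read out with a cell viability assay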
Description: SANGER: Inhibition of human SF126 cell growth in a cell viability assay.

ONS-76 = format: functional, cell-based, Homo sapiens; conditions: Homo sapiens, ONS-76;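 also: growth inhibition of human ONS-76 cells, read out with a cell viability assay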
Description: SANGER: Inhibition of human ONS-76 cell growth in a cell viability assay.

KY821 = format: functional, cell-based, Homo sapiens; conditions: Homo sapiens, KY821;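 also: growth inhibition of human KY821 cells, read out by a cell viability assay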
Description: SANGER: Inhibition of human KY821 cell growth in a cell viability assay.

TGBC1TKB = format: functional, cell-based, Homo sapiens; conditions: Homo sapiens, TGBC1TKB;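 also: growth inhibition of TGBC1TKB cells, read out by a cell viability assay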
Description: SANGER: Inhibition of human TGBC1TKB cell growth in a cell viability assay.

Measured: IC50

CC(C)CCN1c2nc(Nc3cc(F)c(O)c(F)c3)ncc2N(C)C(=O)C1C (stereo not given)
2.55 µM: DB
0.916 µM: ES7
3.28 µM: GOTO
0.888 µM: KY821
0.626 µM: KU812 cell line
2.23 µM: 8-MG-BA
2.47 µM: NCI-H1395
0.979 µM: MV4-11
1.63 µM: A3-KAW
3.94 µM: CGTH-W-1
0.172 µM: NCI-H720
2.92 µM: EM-2
0.856 µM: ML-2
0.682 µM: KP-N-YS
0.846 µM: IST-SL1
3.69 µM: LB2241-RCC
2.02 µM: 697
> 5 µM: all other assays above

COc1cc2ncn(-c3cc(OCc4ccccc4S(C)(=O)=O)c(C#N)s3)c2cc1OC [GSK-319347A]
not listed: HCE-4
> 5 µM: all other assays above

CC[C@H](CO)Nc1nc(NCc2ccccc2)c2ncn(C(C)C)c2n1 [SELICICLIB]
9.46 µM: KS-1
5.76 µM: A3-KAW
12.6 µM: 697
not listed: HCE-4
> 16 µM: all other assays above
